Measurements: patent publication US12220703B2, “Multi function spinning platform” (Danmarks Tekniske Universitet, priority 2018, dated 2025)

System: P. aeruginosa biofilm
Assay: Antibiotic treatment of mature biofilm in perfusion on the centrifugal microfluidic disc, propidium iodide dead/alive biomass by confocal microscopy
Type: cell-based
Details: 72 hours biofilm, after 24 hours of antibiotic perfusion, ciprofloxacin 4 μg/mL
Experimental: The following is an example of how to set up an experiment using the centrifugal microfluidic disc according to the present disclosure. Initially, the entire system including the microfluidic channels is sterilized. After the sterilization of the disc, the system was filled with a medium and left overnight at a low flow rate (pump set on 0.5 RPM, around 60 μL/min). The inoculation of the bacteria in the sterilized disc was achieved by addition of 40 μL overnight culture of 1:100 diluted P. aeruginosa though the inoculation channel situated in close proximity to the cell culture chamber (see FIG. 30). During inoculation, the loading opening was closed to create a back-pressure avoiding bacteria occlusion in the serpentine channel. The adhesion of the bacteria in the culture chamber was carried out in stop flow for one hour, followed by rotation at the set frequency. The total volume of the cell chamber is around 55 μL and only 40 μL of PAO1 was inoculated in order to prevent the introduction of bacteria in the inlet channel. The inoculation in the flow system was achieved by stopping the pump and adding 250 μL overnight culture of 1:100 diluted P. aeruginosa in the selected channels in proximity of the flow chamber. It was important to clamp the silicone tubes which were feeding the channels in order to avoid a back flow. […]

SMILES: O=C(O)c1cn(C2CC2)c2cc(N3CCNCC3)c(F)cc2c1=O [antibiotic, Ciprofloxacin]
- bacteria dead after antibiotic perfusion (flow rate 0.3 μL/min): around 70%
- bacteria dead after antibiotic perfusion (flow rate 1 μL/min): around 50%
